Where a name gives a salt, the structure may show the parent alone.
melting point: 182 to 183 °C
Compound: Cc1nc2cc(-c3ccc4nc(CCN5CCC[C@H]5C)ccc4c3)ccc2s1 (as salt: hydrochloride) [Example 14, 6-(2-Methyl-benzothiazol-5-yl)-2-[2-(2R-methyl-pyrrolidin-1-yl)-ethyl]-quinoline]

Reference: patent US20050256309A1, “Tri-and bi-cyclic heteroaryl histamine-3 receptor ligands” (priority 2004, published 2005)
